This note sets out measurements from patent publication US7754718B2 (priority 2004, dated 2010).

In general, EC50 refers to the concentration needed to bring the measured effect to its halfway point. As usually defined, the melting point is the temperature of the solid-liquid transition. Usually inhibition stands for how much of the control response was suppressed.

One series relates to HSV-2. Kind of series: In vitro antiviral assay for HSV-2. The conditions noted are these: Human alphaherpesvirus 2, read-out: Antiviral Activities (EC50, μM) HSV-2. In kind it is cell-based, Herpes Simplex Virus 2. The protocol:
(§1) The antiviral assays for HBV, (Doong et al., 1991, Proc. Natl. Acad. Sci. U.S.A. 88:8495-8499) HSV-1, (Bastow et al., 1983, Antimicrob. Agents Chemother. 23: 914-917) HSV-2, (Bastow et al., 1983, Antimicrob. Agents Chemother. 23:914-917) EBV, (Yao et al., 1993, Antimicrob. Agents Chemother. 37:1420-1425), CMV (Andreoni et al., 2002, J. Med. Virol. 67:33-40) and HIV (Mellors et al., 1992, Mol. Pharmacol. 41: 446-451) were performed according to the previously reported procedures. Anti-HCV activities were tested in Huh-Luc/neo cell line. Cells were seeded into 48-well plates and grown until confluent. Different concentrations of drugs were added into media (DMEM, 10% dFBS) and incubated for 3 days. At the end of 3-day treatment, medium were removed and 50 μl of Passive lysis buffer (Promega) were added. Cell lysate was shaken at room temperature for 15 min. 30 μl/well of cell lysate was transferred to another 96-well plate, 100 μl/well of luciferase activity assay substrate was added into plate and read by a luminometer (Amersham) immediately.

Series [1] is described as follows: Cell cytotoxicity assay on MT-2 cells. In kind it is cell-based. The settings on record: human, read-out: Cytotoxity (ID50, μM) MT-2. The protocol: (§2) Cytotoxicities of test compounds on MT-2 (Mellors et al., 1992 Mol. Pharmacol. 41:446-451) and CEM (Grove et al., 1995, Cancer Res. 55:3008-3011) cells were determined according to the previously reported procedures. Hepg2 cells were seeded at a density of 10^4 cells/ml/well in 24-well plates and cultured in MEME supplemented with 10% FBS at 37° C. and 5% CO2. Each test compound at different concentrations was added on the second day of the culture and the cells were incubated for another 3 days. At the end of the incubation period, the medium was removed and 0.5 ml of 0.5% methylene blue in 50% ethanol (v/v) was added to each well and set at room temperature for 30-60 minutes. The methylene blue was removed; the plates were washed with water and allowed to air dry. Once dry, 1% sarcosyl was added to dissolve the stained cell layer. The absorbance at 595 nm was measured with a microplate reader (Molecular Devices Corp. Sunnyvale, Calif.). The cytotoxicity to CEM cell was calculated as described previously (Grove et al., 1995, Cancer Res. 55 (14): 3008-3011).

In another series the test system is EBV. Kind of series: In vitro antiviral assay for EBV. The conditions noted are these: human gammaherpesvirus 4, read-out: Antiviral Activities (EC50, μM) EBV. Type of series: cell-based, Epstein-Barr Virus. How it is done:
as §1

Another series deals with HBV. Kind of series: In vitro antiviral assay for HBV (Table 1). In kind it is cell-based, Hepatitis B virus. The conditions noted are these: Hepatitis B virus, read-out: Antiviral Activities (EC50, μM) HBV. How it is done: as §1
For the next series, the system named is HSV-1. Kind of series: In vitro antiviral assay for HSV-1. Type of series: cell-based, Herpes Simplex Virus 1. The conditions noted are these: Human alphaherpesvirus 1, read-out: Antiviral Activities (EC50, μM) HSV-1. The protocol:
as §1

A short description of series [2]: Cell cytotoxicity assay on CEM cells. In kind it is cell-based. The settings on record: human, read-out: Cytotoxity (ID50, μM) CEM. The protocol:
as §2

For a further series, the system named is HIV. Kind of series: In vitro antiviral assay for HIV. In kind it is cell-based, human immunodeficiency virus. The settings on record: Human immunodeficiency virus 1, read-out: Antiviral Activities (EC50, μM) HIV, in vitro; (T) after a value means toxic. The protocol:
as §1

Another series relates to HCV. Kind of series: Anti-HCV activity in Huh-Luc/neo cell line, luciferase activity after 3-day treatment. Type of series: cell-based, Hepatitis C virus. The settings on record: Hepatitis C virus, 72 h, Huh-Luc/neo cells, 3 days; for EC50: given as a bound only, read-out: Antiviral Activities (EC50, μM) HCV; for inhibition at 10 µM: read-out: HCV percent of inhibition. How it is done: as §1

Bounds are passed on as bounds.

`CC(=O)NN1C(=O)c2cc3ccc4c(c3c(-c3ccc5c(c3)OCO5)c2C1=O)OCO4` [Compound 25, N-(10-Benzo[1,3]dioxol-5-yl-7,9-dioxo-7,9-dihydro-1,3-dioxa-8-aza-dicyclopenta[a,g]naphthalen-8-yl)-acetamide]: the melting point was in the range of 281 to 283 °C. For the same molecule, the EC50 with HSV-2 is more than 40 µM. Moreover, the IC50 in series [1] is more than 100 µM. Moreover, in the series on EBV, the EC50 is more than 20 µM. Besides, the EC50 in the series on HBV is more than 10 µM. Also, in the series with HSV-1, the EC50 is more than 40 µM. The IC50 in series [2] came out at 93 µM. Besides, the EC50 with HIV is more than 100 µM. Besides, in the series on HCV, the EC50 is more than 10 µM.
`COC(=O)c1cc2ccc3c(c2c(-c2ccc4c(c2)OCO4)c1C(=O)OC)OCO3` [Compound 30, 9-Benzo[1,3]dioxol-5-yl-naphtho[1,2-d][1,3]dioxole-7,8-dicarboxylic acid dimethyl ester] displayed a melting point of 157 to 159 °C. The EC50 in the series on HSV-2 was more than 50 µM. The IC50 in series [1] was determined as 28 µM. The EC50 with EBV is more than 20 µM. Besides, the concentration giving a half-maximal response (EC50) in the series on HBV was more than 20 µM. Further, in the series on HSV-1, the EC50 is more than 50 µM. In addition, the IC50 in series [2] came to 50 µM. Also, the EC50 with HIV is more than 28 µM. For the same molecule, the inhibition at 10 µM in the series on HCV came out at 93%.
In turn, `COC(=O)c1c(C(=O)O)cc2ccc3c(c2c1-c1ccc2c(c1)OCO2)OCO3` [Compound 31, 9-Benzo[1,3]dioxol-5-yl-naphtho[1,2-d][1,3]dioxole-7,8-dicarboxylic acid 8-methyl ester] returned a melting point of 273 to 275 °C. In addition, the EC50 with HSV-2 is more than 50 µM. Further, in [1], the IC50 worked out at 90 µM. Moreover, the EC50 in the series on EBV was more than 20 µM. For the same molecule, the EC50 in the series on HBV was more than 20 µM. For the same molecule, the EC50 with HSV-1 is more than 50 µM. Moreover, the IC50 in series [2] was found to be 74 µM. The EC50 in the series on HIV was more than 90 µM. Moreover, in the series on HCV, the EC50 was more than 10 µM.
In the case of `O=C(O)c1cc2ccc3c(c2c(-c2ccc4c(c2)OCO4)c1C(=O)O)OCO3` [Compound 32, 9-Benzo[1,3]dioxol-5-yl-naphtho[1,2-d][1,3]dioxole-7,8-dicarboxylic acid], the melting point was 253 °C (dec.). Besides, the EC50 with HSV-2 was more than 50 µM. Besides, the IC50 in series [1] is more than 100 µM. Also, in the series on EBV, the EC50 is more than 20 µM. Moreover, in the series on HBV, the concentration giving a half-maximal response (EC50) is more than 20 µM. In the series on HSV-1, the EC50 is more than 50 µM. In addition, the IC50 in series [2] was more than 100 µM. Also, in the series on HIV, the EC50 was more than 100 µM. The EC50 in the series with HCV is more than 10 µM.
The molecule `CCOC(=O)c1c(C(=O)OCC)c(-c2ccc3c(c2)OCO3)c2c3c(ccc2c1O)OCO3` [Compound 33, 9-Benzo[1,3]dioxol-5-yl-6-hydroxy-naphtho[1,2-d][1,3]dioxole-7,8-dicarboxylic acid diethyl ester] yielded a melting point of 192 to 194 °C. Further, the EC50 with HSV-2 was more than 50 µM. Besides, the IC50 in series [1] was determined as 15 µM. The EC50 with EBV was more than 10 µM. For the same molecule, in the series with HBV, the EC50 was more than 10 µM. Further, the EC50 in the series on HSV-1 was more than 50 µM. In addition, the IC50 in series [2] is 39 µM. The EC50 in the series on HIV is more than 15 µM. The inhibition at 10 µM in the series on HCV was 62%.
In the case of `O=C1OCc2c1c(-c1ccc3c(c1)OCO3)c1c3c(ccc1c2O)OCO3` [Compound 34, 10-Benzo[1,3]dioxol-5-yl-6-hydroxy-7H-furo[3′,4′:6,7]naphtho[1,2-d][1,3]dioxol-9-one], the melting point was 257 °C (dec.). The EC50 in the series on HSV-2 worked out at 28 µM. Besides, the IC50 in series [1] was 13 µM. In the series on EBV, the EC50 is more than 10 µM. In the series on HBV, the concentration for a half-maximal effect (EC50) is more than 10 µM. For the same molecule, the EC50 in the series with HSV-1 stood at 23 µM. In addition, in series [2], the IC50 turned out to be 31 µM. The EC50 in the series with HIV was more than 13 µM. Also, in the series with HCV, the concentration giving a half-maximal response (EC50) is more than 10 µM.
